Tests used:
Cytochrome P450 1A2 = target: T1, Cytochrome P450 1A2 (Homo sapiens, UniProt P05177); conditions: bti-tn-5b1-4
T1 sequence (P05177 whole entry): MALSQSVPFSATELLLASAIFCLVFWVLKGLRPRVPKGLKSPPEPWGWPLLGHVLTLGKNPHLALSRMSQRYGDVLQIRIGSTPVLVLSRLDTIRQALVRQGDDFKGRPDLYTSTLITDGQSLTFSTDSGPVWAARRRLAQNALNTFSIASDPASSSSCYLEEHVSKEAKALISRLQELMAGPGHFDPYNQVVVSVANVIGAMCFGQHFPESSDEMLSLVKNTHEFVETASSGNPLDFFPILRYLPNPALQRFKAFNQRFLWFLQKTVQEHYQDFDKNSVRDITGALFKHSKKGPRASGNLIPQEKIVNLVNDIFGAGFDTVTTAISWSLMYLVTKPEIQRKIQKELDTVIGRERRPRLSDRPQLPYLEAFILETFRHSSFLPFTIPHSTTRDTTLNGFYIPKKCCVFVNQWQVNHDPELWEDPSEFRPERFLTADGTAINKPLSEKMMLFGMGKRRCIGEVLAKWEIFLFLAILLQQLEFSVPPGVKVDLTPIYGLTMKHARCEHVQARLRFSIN

Thromboxane-A synthase = target: T2, Thromboxane-A synthase (Homo sapiens, UniProt P24557); experiment: biochemical; assay type: tissue-based, Platelet; conditions: platelet;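 note: enzyme inhibition assay with PGH2 supplied as substrate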
T2 sequence (P24557 whole entry): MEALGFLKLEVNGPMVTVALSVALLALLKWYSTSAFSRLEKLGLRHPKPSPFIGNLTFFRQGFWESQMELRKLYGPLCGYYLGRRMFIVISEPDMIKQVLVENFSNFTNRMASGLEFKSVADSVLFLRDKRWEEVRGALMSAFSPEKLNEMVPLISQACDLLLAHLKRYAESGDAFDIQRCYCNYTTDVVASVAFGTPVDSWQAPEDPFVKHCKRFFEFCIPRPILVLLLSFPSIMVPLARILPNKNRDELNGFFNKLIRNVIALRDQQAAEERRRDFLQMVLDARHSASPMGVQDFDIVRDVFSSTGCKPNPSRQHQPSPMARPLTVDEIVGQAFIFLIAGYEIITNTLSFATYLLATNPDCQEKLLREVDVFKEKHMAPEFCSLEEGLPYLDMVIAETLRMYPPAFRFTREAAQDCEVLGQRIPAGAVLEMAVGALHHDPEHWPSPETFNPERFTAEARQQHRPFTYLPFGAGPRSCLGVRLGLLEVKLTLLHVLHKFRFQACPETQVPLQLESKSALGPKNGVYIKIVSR

Glycine receptor = Glycine receptor (Rattus norvegicus, UniProt P22771+P24524+P07727+P20781); assay type: cell membranes, Wistar, Spinal cord, Membrane
[1] = target: T3, Neuropeptide Y receptor type 1 (Homo sapiens, UniProt P25929); assay type: cell membranes, Membrane; conditions: sk-n-mc
T3 sequence (P25929 whole entry): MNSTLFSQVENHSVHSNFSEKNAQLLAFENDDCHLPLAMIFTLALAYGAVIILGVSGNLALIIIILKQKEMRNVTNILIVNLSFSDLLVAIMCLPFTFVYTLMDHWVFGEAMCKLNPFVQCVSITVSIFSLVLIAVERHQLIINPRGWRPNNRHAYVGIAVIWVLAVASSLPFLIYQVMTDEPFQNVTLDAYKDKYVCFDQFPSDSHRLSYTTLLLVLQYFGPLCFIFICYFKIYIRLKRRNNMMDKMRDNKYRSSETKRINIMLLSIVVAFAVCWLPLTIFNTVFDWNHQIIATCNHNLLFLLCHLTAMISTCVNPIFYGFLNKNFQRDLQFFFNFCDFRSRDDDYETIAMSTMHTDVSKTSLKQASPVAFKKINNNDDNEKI

[2] = target: T4, 3-hydroxy-3-methylglutaryl-coenzyme A reductase (Homo sapiens, UniProt P04035); set-up: species or system Escherichia coli;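 note: enzyme inhibition assay of HMG-CoA reductase using radiolabeled [14C]HMG-CoA as substrate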
T4 sequence (P04035 whole entry): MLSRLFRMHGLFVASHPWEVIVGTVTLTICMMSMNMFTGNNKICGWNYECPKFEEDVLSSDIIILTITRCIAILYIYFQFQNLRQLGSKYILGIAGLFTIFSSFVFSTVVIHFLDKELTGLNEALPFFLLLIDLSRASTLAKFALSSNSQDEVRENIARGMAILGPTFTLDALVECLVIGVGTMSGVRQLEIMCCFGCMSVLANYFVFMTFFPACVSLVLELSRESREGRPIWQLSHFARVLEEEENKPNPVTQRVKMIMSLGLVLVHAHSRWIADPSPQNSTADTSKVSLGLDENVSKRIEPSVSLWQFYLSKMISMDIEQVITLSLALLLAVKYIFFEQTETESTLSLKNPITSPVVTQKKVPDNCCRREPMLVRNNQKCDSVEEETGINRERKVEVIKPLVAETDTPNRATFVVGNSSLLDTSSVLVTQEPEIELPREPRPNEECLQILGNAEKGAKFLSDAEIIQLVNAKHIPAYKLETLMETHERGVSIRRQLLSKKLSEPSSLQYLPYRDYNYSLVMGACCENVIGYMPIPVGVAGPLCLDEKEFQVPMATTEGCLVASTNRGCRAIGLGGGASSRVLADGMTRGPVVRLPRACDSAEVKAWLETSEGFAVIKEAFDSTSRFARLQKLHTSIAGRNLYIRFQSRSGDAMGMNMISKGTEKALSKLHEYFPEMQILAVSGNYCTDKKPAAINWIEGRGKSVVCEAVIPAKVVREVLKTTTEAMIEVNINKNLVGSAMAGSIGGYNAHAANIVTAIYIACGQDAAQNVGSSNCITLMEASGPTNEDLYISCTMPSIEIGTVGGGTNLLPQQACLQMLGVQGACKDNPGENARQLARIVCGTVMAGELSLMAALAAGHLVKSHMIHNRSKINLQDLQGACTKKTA

Leukotriene C4 synthase = target: T5, Leukotriene C4 synthase (Cavia porcellus, UniProt A6XA80); assay type: tissue-based, Lung;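 note: enzyme inhibition assay of leukotriene C4 synthase, using LTA4 as the substrate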
T5 sequence (A6XA80 whole entry): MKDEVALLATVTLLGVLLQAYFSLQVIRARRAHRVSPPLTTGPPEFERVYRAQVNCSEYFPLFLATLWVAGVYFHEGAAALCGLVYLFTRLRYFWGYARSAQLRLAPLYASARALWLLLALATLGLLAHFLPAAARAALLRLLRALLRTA
Note: in other assays of this panel Not Active means under 50% inhibition at 10 µM.

O=C(O)Cc1ccccc1Nc1c(Cl)cccc1Cl [DICLOFENAC]
Not Active: IC50 (Cytochrome P450 1A2) | Ki (Cytochrome P450 1A2) | IC50 (Thromboxane-A synthase) | IC50 (Glycine receptor) | IC50 [1] | IC50 [2] | IC50 (Leukotriene C4 synthase)

C[C@H]1O[C@@H](O[C@H]2[C@@H](O)C[C@H](O[C@H]3[C@@H](O)C[C@H](O[C@H]4CC[C@@]5(C)[C@H](CC[C@@H]6[C@@H]5CC[C@]5(C)[C@@H](C7=CC(=O)OC7)CC[C@]65O)C4)O[C@@H]3C)O[C@@H]2C)C[C@H](O)[C@@H]1O [DIGITOXIN]
Not Active: IC50 (Cytochrome P450 1A2) | Ki (Cytochrome P450 1A2) | IC50 (Thromboxane-A synthase) | IC50 (Glycine receptor) | IC50 [1] | IC50 [2] | IC50 (Leukotriene C4 synthase)

CCN1CC(CCN2CCOCC2)C(c2ccccc2)(c2ccccc2)C1=O (centres undefined) [DOXAPRAM]
Not Active: IC50 (Cytochrome P450 1A2) | Ki (Cytochrome P450 1A2) | IC50 (Thromboxane-A synthase) | IC50 (Glycine receptor) | IC50 [1] | IC50 [2] | IC50 (Leukotriene C4 synthase)

Cn1c(=O)c2c(ncn2CC2OCCO2)n(C)c1=O [DOXOFYLLINE]
Not Active: IC50 (Cytochrome P450 1A2) | Ki (Cytochrome P450 1A2) | IC50 (Thromboxane-A synthase) | IC50 (Glycine receptor) | IC50 [1] | IC50 [2] | IC50 (Leukotriene C4 synthase)

COc1cccc2c1C(=O)c1c(O)c3c(c(O)c1C2=O)C[C@@](O)(C(=O)CO)C[C@@H]3O[C@H]1C[C@H](N)[C@H](O)[C@H](C)O1 [DOXORUBICIN]
Not Active: IC50 (Cytochrome P450 1A2) | Ki (Cytochrome P450 1A2) | IC50 (Thromboxane-A synthase) | IC50 (Glycine receptor) | IC50 [1] | IC50 [2] | IC50 (Leukotriene C4 synthase)

COc1cccc2c1C(=O)c1c(O)c3c(c(O)c1C2=O)C[C@@](O)(C(=O)CO)C[C@@H]3O[C@H]1C[C@H](N)[C@@H](O)[C@H](C)O1 [EPIRUBICIN]
Not Active: IC50 (Cytochrome P450 1A2) | Ki (Cytochrome P450 1A2) | IC50 (Thromboxane-A synthase) | IC50 (Glycine receptor) | IC50 [1] | IC50 [2] | IC50 (Leukotriene C4 synthase)

C[C@]12CC[C@@H]3c4ccc(OC(=O)c5ccccc5)cc4CC[C@H]3[C@@H]1CC[C@@H]2O [ESTRADIOL BENZOATE]
Not Active: IC50 (Cytochrome P450 1A2) | Ki (Cytochrome P450 1A2) | IC50 (Thromboxane-A synthase) | IC50 (Glycine receptor) | IC50 [1] | IC50 [2] | IC50 (Leukotriene C4 synthase)

C[C@]12CC[C@@H]3c4ccc(O)cc4CC[C@H]3[C@@H]1CC[C@@H]2O [ESTRADIOL]
Not Active: IC50 (Cytochrome P450 1A2) | Ki (Cytochrome P450 1A2) | IC50 (Thromboxane-A synthase) | IC50 (Glycine receptor) | IC50 [1] | IC50 [2] | IC50 (Leukotriene C4 synthase)

CC[C@@H](CO)NCCN[C@@H](CC)CO [ETHAMBUTOL]
Not Active: IC50 (Cytochrome P450 1A2) | Ki (Cytochrome P450 1A2) | IC50 (Thromboxane-A synthase) | IC50 (Glycine receptor) | IC50 [1] | IC50 [2] | IC50 (Leukotriene C4 synthase)

CC1(C)O[C@@H]2C[C@H]3[C@@H]4C[C@H](F)C5=CC(=O)C=C[C@]5(C)[C@H]4[C@@H](O)C[C@]3(C)[C@]2(C(=O)CO)O1 [FLUNISOLIDE]
Not Active: IC50 (Cytochrome P450 1A2) | Ki (Cytochrome P450 1A2) | IC50 (Thromboxane-A synthase) | IC50 (Glycine receptor) | IC50 [1] | IC50 [2] | IC50 (Leukotriene C4 synthase)

CC1(C)O[C@@H]2C[C@H]3[C@@H]4C[C@H](F)C5=CC(=O)C=C[C@]5(C)[C@@]4(F)[C@@H](O)C[C@]3(C)[C@]2(C(=O)CO)O1 [FLUOCINOLONE ACETONIDE]
Not Active: IC50 (Cytochrome P450 1A2) | Ki (Cytochrome P450 1A2) | IC50 (Thromboxane-A synthase) | IC50 (Glycine receptor) | IC50 [1] | IC50 [2] | IC50 (Leukotriene C4 synthase)

CC1(C)O[C@@H]2C[C@H]3[C@@H]4C[C@H](F)C5=CC(=O)CC[C@]5(C)[C@H]4[C@@H](O)C[C@]3(C)[C@]2(C(=O)CO)O1 [FLURANDRENOLIDE]
Not Active: IC50 (Cytochrome P450 1A2) | Ki (Cytochrome P450 1A2) | IC50 (Thromboxane-A synthase) | IC50 (Glycine receptor) | IC50 [1] | IC50 [2] | IC50 (Leukotriene C4 synthase)
